Assay results as given in US8008345B2, “Dermal therapy using phosphate derivatives of electron transfer agents” (Vital Health Sciences Pty. Ltd., priority 2001, dated 2011).
Counter-ions that a name gives are not always drawn.

Columns and labels:
[1] = test system: insect bite; assay: Case: insect bite with blistering and inflammation (Example 9); format: in vivo, human; conditions: oral anti-histamine plus topical corticosteroid cream together, first day
Source text: In this example, a method of the invention is used to treat erythema and inflammation symptoms associated with an insect bite.

[2] = test system: photodamaged skin (face); assay: Eight-week pilot study on photodamaged skin: clinical grading of efficacy (aging) parameters; format: in vivo, human; conditions: pilot study outcome, stated for the active
Procedure: An eight-week double blind vehicle controlled pilot study was conducted to evaluate the effects of a topical treatment comprising tocopheryl phosphate complexes on improving the appearance of photodamaged skin. Ten female subjects completed the pilot study.
At Visit 1 (screening), prospective subjects completed a health and eligibility questionnaire, and signed a photography release form and an informed consent agreement. Subjects were examined for study eligibility criteria according to the following classifications: […]
Qualified subjects returned to the clinic for Visit 2 (baseline). Subjects participated in the following clinical grading and instrumentation procedures: • Objective irritation (erythema, edema, scaling/skin dryness, rash) and subjective irritation (burning, itching, stinging, tingling, tightness) were assessed globally on the face. Results were recorded using the following scale: 0=none, 1=mild, 2=moderate, and 3=severe. • The following efficacy (aging) parameters were graded at the specified locations using a analog scale (extremes of the scale are listed in parentheses). […]
Mean scores for clinical grading parameters and pinch recoil measurements at Week 4 and Week 8 were statistically compared to baseline using a paired t-test at the p≦0.05 significance level. Mean percent change from baseline was calculated for all attributes. […]

[3] = test system: facial skin; parameters: species or system human; conditions: in vivo
Procedure: Qualified subjects returned to the clinic for Visit 2 (baseline). Subjects participated in the following clinical grading and instrumentation procedures: • Objective irritation (erythema, edema, scaling/skin dryness, rash) and subjective irritation (burning, itching, stinging, tingling, tightness) were assessed globally on the face. Results were recorded using the following scale: 0=none, 1=mild, 2=moderate, and 3=severe. • The following efficacy (aging) parameters were graded at the specified locations using a analog scale (extremes of the scale are listed in parentheses).
Subjects were assigned to use test material Product A (cream from Example 4) or Product B (Vehicle control: emulsion system) according to a predetermined randomization. […]
Mean scores for clinical grading parameters and pinch recoil measurements at Week 4 and Week 8 were statistically compared to baseline using a paired t-test at the p≦0.05 significance level. Mean percent change from baseline was calculated for all attributes. […] For self-assessment questionnaire responses at Week 4 and Week 8, mean response values and standard deviations were calculated for each question.
Irritation parameters were graded according to a four-point scale where 0=None, 1=Mild, 2=Moderate, and 3=Severe. Efficacy parameters were assessed according to an analog scale where 0 represents positive scores and 10 represents negative scores.

| Compound | improvement of bite [1] | appearance of fine lines, wrinkles and skin elasticity in photodamaged skin [2] | objective or subjective skin irritation responses in users [3] |
| --- | --- | --- | --- |
| CC(C)(C(=O)O)c1ccc(C(O)CCCN2CCC(C(O)(c3ccccc3)c3ccccc3)CC2)cc1 (stereo not drawn) [fexofenadine hydrochloride] | little improvement | – | – |
| Lauryliminodipropionic Acid Tocopheryl Phosphate | – | improved the appearance of fine lines, wrinkles and skin elasticity | did not produce objective or subjective skin irritation responses |
